Assay results from US9527869B2, “Indolizine derivatives as phoshoinositide 3-kinases inhibitors” (CHIESI FARMACEUTICI S.P.A., priority 2014, dated 2016).

What was measured:
Assay type in all cases: biochemical
PI3Kδ = biological target: T1, PI3Kδ (Homo sapiens, UniProt O00329); assay: In vitro determination of the PI3K enzyme inhibitory activity in the cell free assay (ADP-Glo Kinase Assay), PI3Kδ; settings: ATP 80 μM, read-out: PI3K delta inhibition
T1 construct: purchased Millipore Ltd (Billerica, Mass.)
T1 sequence (O00329 whole entry): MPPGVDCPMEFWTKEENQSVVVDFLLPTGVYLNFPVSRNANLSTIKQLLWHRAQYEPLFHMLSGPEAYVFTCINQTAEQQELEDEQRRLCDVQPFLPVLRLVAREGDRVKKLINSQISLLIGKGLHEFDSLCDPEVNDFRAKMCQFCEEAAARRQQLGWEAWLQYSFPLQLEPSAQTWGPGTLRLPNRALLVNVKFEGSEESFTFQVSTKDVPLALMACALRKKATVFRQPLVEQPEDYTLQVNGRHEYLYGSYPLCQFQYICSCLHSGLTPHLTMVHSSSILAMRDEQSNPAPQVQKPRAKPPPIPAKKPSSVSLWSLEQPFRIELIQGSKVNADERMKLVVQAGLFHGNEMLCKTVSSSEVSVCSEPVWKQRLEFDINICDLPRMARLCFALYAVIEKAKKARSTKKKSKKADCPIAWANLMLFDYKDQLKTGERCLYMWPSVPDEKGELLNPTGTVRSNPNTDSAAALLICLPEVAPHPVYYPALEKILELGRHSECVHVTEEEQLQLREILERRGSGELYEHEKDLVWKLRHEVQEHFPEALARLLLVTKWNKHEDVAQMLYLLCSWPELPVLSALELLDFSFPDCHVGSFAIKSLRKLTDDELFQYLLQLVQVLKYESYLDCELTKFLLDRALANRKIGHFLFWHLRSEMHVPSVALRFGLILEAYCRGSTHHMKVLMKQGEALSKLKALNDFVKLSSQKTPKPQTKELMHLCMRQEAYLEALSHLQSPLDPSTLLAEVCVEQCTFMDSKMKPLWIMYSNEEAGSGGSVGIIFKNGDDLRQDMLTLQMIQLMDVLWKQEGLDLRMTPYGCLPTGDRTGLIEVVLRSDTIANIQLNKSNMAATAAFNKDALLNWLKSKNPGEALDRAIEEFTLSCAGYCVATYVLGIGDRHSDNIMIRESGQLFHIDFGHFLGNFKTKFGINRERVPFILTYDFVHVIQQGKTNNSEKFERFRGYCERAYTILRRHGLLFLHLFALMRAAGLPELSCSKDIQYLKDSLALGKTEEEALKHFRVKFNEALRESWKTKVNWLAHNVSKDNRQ
T1 sequence (P27986 whole entry partner): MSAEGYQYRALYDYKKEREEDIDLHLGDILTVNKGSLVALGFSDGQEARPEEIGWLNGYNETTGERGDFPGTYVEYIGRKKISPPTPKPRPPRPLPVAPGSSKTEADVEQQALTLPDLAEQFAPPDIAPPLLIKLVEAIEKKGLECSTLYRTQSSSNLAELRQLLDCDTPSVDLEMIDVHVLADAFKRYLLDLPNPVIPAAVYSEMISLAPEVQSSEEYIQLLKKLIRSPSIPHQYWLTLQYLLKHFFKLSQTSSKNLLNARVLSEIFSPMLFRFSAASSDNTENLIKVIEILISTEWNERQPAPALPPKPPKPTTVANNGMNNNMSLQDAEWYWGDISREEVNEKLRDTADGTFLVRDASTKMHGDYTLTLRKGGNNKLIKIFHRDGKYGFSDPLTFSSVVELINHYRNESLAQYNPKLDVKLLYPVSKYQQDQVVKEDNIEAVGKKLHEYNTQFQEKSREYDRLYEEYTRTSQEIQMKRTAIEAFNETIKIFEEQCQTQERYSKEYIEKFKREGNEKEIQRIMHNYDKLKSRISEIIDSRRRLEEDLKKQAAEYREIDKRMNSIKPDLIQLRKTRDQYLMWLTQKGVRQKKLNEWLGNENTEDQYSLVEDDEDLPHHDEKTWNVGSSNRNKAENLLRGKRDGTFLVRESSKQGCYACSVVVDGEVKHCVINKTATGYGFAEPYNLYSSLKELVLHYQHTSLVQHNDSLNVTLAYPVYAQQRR
Method in brief: (§1)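 Human recombinant PI3K isoforms with PI/PS lipid substrates (50 μM in 2× buffer, Tris pH 7.5, DTT) were run 60 min at room temperature. Final ATP was 50 μM for α, 100 μM for β, 30 μM for γ and 80 μM for δ. ADP formation was read by ADP-Glo luminescence, and IC50 came from a four-parameter logistic fit.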

PI3Kγ = biological target: T2, PI3Kγ (Homo sapiens, UniProt P48736); assay: In vitro determination of the PI3K enzyme inhibitory activity in the cell free assay (ADP-Glo Kinase Assay), PI3Kγ; settings: ATP 30 μM, read-out: PI3K gamma inhibition
T2 construct: purchased Millipore Ltd (Billerica, Mass.)
T2 sequence (P48736 whole entry): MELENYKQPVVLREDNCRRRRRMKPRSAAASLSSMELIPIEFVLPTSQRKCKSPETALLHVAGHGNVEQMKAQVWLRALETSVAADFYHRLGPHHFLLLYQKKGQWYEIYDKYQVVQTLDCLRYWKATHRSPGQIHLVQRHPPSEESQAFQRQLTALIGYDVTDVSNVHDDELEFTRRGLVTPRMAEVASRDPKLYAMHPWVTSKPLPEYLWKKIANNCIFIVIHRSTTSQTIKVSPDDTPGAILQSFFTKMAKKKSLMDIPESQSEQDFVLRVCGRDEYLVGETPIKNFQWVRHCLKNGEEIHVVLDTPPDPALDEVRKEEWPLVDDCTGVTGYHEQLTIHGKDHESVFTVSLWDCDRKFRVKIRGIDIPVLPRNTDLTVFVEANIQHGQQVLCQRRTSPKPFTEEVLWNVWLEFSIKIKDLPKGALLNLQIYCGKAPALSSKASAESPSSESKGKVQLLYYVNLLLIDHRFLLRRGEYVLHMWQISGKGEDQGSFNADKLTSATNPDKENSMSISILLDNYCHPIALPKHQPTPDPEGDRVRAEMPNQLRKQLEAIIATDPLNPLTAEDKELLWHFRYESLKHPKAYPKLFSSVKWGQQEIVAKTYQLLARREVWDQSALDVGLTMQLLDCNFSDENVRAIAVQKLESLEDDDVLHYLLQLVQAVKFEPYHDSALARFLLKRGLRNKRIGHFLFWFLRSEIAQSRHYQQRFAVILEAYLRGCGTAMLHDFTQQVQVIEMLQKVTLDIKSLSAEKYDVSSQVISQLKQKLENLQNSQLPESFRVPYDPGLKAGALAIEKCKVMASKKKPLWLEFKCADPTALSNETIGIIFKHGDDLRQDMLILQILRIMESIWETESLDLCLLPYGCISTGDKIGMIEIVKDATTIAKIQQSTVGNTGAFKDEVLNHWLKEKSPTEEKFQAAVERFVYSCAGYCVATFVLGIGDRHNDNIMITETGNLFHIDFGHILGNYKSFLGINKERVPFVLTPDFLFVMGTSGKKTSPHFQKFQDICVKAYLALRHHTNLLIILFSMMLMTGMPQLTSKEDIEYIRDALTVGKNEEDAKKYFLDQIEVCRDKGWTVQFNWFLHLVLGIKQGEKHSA
Method in brief: as §1

PI3Kα = biological target: T3, PI3Kα (Homo sapiens, UniProt P42336); assay: In vitro determination of the PI3K enzyme inhibitory activity in the cell free assay (ADP-Glo Kinase Assay), PI3Kα; settings: ATP 50 μM, read-out: PI3K alpha inhibition
T3 construct: purchased Millipore Ltd (Billerica, Mass.)
T3 sequence (P42336 whole entry): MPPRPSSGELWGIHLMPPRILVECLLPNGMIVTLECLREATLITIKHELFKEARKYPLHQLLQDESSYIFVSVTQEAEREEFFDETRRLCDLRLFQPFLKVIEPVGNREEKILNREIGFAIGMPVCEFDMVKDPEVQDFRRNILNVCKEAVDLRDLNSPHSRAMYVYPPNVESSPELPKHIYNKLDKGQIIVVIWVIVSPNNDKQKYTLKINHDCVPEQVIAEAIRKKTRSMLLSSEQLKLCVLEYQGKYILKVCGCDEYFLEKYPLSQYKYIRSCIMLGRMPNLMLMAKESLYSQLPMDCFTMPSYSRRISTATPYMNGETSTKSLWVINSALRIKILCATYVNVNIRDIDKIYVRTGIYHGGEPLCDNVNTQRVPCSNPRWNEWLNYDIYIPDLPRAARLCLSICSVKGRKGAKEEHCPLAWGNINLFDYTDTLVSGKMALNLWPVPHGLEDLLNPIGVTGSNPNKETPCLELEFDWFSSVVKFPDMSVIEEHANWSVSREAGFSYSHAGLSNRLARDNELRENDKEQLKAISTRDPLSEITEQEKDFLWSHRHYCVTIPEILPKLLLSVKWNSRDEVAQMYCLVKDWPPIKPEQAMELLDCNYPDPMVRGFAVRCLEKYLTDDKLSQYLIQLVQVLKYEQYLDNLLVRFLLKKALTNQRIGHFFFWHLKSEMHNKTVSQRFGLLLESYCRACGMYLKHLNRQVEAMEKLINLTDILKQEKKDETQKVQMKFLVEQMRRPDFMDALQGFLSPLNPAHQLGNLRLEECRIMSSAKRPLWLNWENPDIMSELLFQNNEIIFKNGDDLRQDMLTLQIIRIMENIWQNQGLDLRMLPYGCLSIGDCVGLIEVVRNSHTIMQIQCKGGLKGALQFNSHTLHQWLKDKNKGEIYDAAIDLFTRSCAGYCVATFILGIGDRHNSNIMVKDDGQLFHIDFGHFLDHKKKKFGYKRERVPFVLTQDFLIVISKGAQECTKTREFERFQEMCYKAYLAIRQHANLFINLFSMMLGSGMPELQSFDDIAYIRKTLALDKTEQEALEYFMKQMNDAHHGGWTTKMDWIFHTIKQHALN
T3 sequence (P27986 whole entry partner): as the sequence (P27986 whole entry partner) above
Method in brief: as §1

PI3Kβ = biological target: T4, PI3Kβ (Homo sapiens, UniProt P42338); assay: In vitro determination of the PI3K enzyme inhibitory activity in the cell free assay (ADP-Glo Kinase Assay), PI3Kβ; settings: ATP 100 μM, read-out: PI3K beta inhibition
T4 construct: purchased Millipore Ltd (Billerica, Mass.)
T4 sequence (P42338 whole entry): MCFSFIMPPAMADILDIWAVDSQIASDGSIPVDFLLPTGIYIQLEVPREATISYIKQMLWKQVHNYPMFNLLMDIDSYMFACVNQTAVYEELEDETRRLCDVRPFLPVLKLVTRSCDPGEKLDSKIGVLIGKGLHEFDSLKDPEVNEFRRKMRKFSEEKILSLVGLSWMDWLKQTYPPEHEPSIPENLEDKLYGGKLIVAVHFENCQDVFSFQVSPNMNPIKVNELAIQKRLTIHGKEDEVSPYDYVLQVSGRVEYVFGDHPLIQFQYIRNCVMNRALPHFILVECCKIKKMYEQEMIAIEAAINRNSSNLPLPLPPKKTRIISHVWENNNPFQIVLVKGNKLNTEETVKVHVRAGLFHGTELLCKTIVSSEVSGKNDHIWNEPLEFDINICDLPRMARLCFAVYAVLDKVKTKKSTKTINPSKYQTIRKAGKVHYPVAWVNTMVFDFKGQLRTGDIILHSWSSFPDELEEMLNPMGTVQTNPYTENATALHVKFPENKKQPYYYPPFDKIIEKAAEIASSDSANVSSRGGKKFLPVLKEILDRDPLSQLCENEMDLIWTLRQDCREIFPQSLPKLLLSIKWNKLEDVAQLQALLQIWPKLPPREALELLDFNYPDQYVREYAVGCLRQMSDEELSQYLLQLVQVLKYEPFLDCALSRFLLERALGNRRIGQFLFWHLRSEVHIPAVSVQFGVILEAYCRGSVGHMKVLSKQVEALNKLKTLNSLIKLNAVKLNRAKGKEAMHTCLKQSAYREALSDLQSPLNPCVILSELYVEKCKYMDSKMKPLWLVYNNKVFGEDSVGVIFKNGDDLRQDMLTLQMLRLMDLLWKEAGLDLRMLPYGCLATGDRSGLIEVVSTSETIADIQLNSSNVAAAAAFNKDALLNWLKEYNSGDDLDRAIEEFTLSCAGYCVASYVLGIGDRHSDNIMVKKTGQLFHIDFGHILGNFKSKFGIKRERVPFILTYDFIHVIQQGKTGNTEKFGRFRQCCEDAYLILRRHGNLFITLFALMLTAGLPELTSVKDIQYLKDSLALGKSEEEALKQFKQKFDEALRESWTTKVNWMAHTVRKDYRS
T4 sequence (P27986 whole entry partner): as the sequence (P27986 whole entry partner) above
Method in brief: as §1

SMILES | IC50 (PI3Kδ) | IC50 (PI3Kγ) | IC50 (PI3Kα) | IC50 (PI3Kβ)
CC(c1cc2ccccn2c1-c1cc(CN2CCOCC2)ccn1)n1nc(-c2cc(O)cc(F)c2)c2c(N)ncnc21 (centres unmarked) [Example 111, 3-[4-amino-1-(1-{3-[4-(morpholin-4-ylmethyl)pyridin-2-yl]indolizin-2-yl}ethyl)-1H-pyrazolo[3,4-d]-pyrimidin-3-yl]-5-fluorophenol] | < 0.01 µM | 0.01 to 1 µM | > 1 µM | 0.01 to 1 µM
CC(c1cc2ccccn2c1-c1cc(CN(C)C)ccn1)n1nc(-c2cc(O)cc(F)c2)c2c(N)ncnc21 (centres unmarked) [Example 112, 3-{4-amino-1-[1-(3-{4-[(dimethylamino)-methyl]pyridin-2-yl}indolizin-2-yl)-ethyl]-1H-pyrazolo[3,4-d]pyrimidin-3-yl}-5-fluorophenol] | < 0.01 µM | 0.01 to 1 µM | 0.01 to 1 µM | 0.01 to 1 µM
CC(c1cc2ccccn2c1-c1ccc(CN2CCCC2)cn1)n1nc(-c2cc(O)cc(F)c2)c2c(N)ncnc21 (centres unmarked) [Example 113, 3-[4-amino-1-(1-{3-[5-(pyrrolidin-1-ylmethyl)pyridin-2-yl]indolizin-2-yl}ethyl)-1H-pyrazolo[3,4-d]pyrimidin-3-yl]-5-fluorophenol] | < 0.01 µM | > 1 µM | > 1 µM | 0.01 to 1 µM
CC(c1cc2ccccn2c1-c1ccc(CN2CCN(C)CC2)cn1)n1nc(-c2cc(O)cc(F)c2)c2c(N)ncnc21 (centres unmarked) [Example 114, 3-{4-amino-1-[1-(3-{5-[(4-methylpiperazin-1-yl)methyl]pyridin-2-yl}indolizin-2-yl)ethyl]-1H-pyrazolo-[3,4-d]pyrimidin-3-yl}-5-fluorophenol] | < 0.01 µM | > 1 µM | > 1 µM | 0.01 to 1 µM
CC(c1cc2ccccn2c1-c1cccc(CN2CCN(C)CC2)n1)n1nc(-c2cc(O)cc(F)c2)c2c(N)ncnc21 (centres unmarked) [Example 115, 3-{4-amino-1-[1-(3-{6-[(4-methylpiperazin-1-yl)methyl]pyridin-2-yl}indolizin-2-yl)ethyl]-1H-pyrazolo-[3,4-d]pyrimidin-3-yl}-5-fluorophenol] | 0.01 to 1 µM | 0.01 to 1 µM | 0.01 to 1 µM | 0.01 to 1 µM
CC(c1cc2ccccn2c1-c1cc(CN2CCN(C)CC2)ccn1)n1nc(-c2cc(O)cc(F)c2)c2c(N)ncnc21 (centres unmarked) [Example 116, 3-{4-amino-1-[1-(3-{4-[(4-methylpiperazin-1-yl)methyl]pyridin-2-yl}indolizin-2-yl)ethyl]-1H-pyrazolo-[3,4-d]pyrimidin-3-yl}-5-fluorophenol] | < 0.01 µM | 0.01 to 1 µM | 0.01 to 1 µM | 0.01 to 1 µM
CC(c1cc2ccccn2c1-c1ccc(CN(CCO)CCO)cn1)n1nc(-c2cc(O)cc(F)c2)c2c(N)ncnc21 (centres unmarked) [Example 117, 3-(4-amino-1-{1-[3-(5-{[bis(2-hydroxyethyl)amino]methyl}pyridin-2-yl)indolizin-2-yl]ethyl}-1H-pyrazolo[3,4-d]pyrimidin-3-yl)-5-fluorophenol] | < 0.01 µM | > 1 µM | > 1 µM | 0.01 to 1 µM
CC(c1cc2ccccn2c1-c1ccc(OCCN2CCOCC2)cn1)n1nc(-c2cc(O)cc(F)c2)c2c(N)ncnc21 (centres unmarked) [Example 119, 3-{4-amino-1-[1-(3-{5-[2-(morpholin-4-yl)ethoxy]pyridin-2-yl}indolizin-2-yl)ethyl]-1H-pyrazolo[3,4-d]-pyrimidin-3-yl}-5-fluorophenol] | < 0.01 µM | > 1 µM | > 1 µM | 0.01 to 1 µM
CC(c1cc2ccccn2c1-c1ccc(=O)n(CCN2CCOCC2)c1)n1nc(-c2cc(O)cc(F)c2)c2c(N)ncnc21 (centres unmarked) [Example 120, 5-(2-{1-[4-amino-3-(3-fluoro-5-hydroxyphenyl)-1H-pyrazolo[3,4-d]pyrimidin-1-yl]ethyl}-indolizin-3-yl)-1-[2-(morpholin-4-yl)ethyl]-1,2-dihydropyridin-2-one] | < 0.01 µM | 0.01 to 1 µM | > 1 µM | > 1 µM
CC(c1cc2ccccn2c1-c1ccn(CCN2CCOCC2)c(=O)c1)n1nc(-c2cc(O)cc(F)c2)c2c(N)ncnc21 (centres unmarked) [Example 121, 4-(2-{1-[4-amino-3-(3-fluoro-5-hydroxyphenyl)-1H-pyrazolo[3,4-d]pyrimidin-1-yl]ethyl}-indolizin-3-yl)-1-[2-(morpholin-4-yl)ethyl]-1,2-dihydropyridin-2-one] | < 0.01 µM | 0.01 to 1 µM | > 1 µM | 0.01 to 1 µM
CC(c1cc2ccccn2c1-c1ccn(CCN2CCOCC2)c(=O)c1)n1nc(-c2cncc(O)c2)c2c(N)ncnc21 (centres unmarked) [Example 122, 4-(2-{1-[4-amino-3-(5-hydroxypyridin-3-yl)-1H-pyrazolo[3,4-d]pyrimidin-1-yl]ethyl}indolizin-3-yl)-1-[2-(morpholin-4-yl)ethyl]-1,2-dihydropyridin-2-one] | < 0.01 µM | > 1 µM | > 1 µM | 0.01 to 1 µM
CC(c1cc2ccccn2c1-c1ccccc1C#N)n1nc(-c2cc(O)cc(F)c2)c2c(N)ncnc21 (centres unmarked) [Example 123, 2-(2-{1-[4-amino-3-(3-fluoro-5-hydroxyphenyl)-1H-pyrazolo[3,4-d]pyrimidin-1-yl]-ethyl}indolizin-3-yl)benzonitrile] | < 0.01 µM | > 1 µM | > 1 µM | 0.01 to 1 µM
CC(c1c(C(F)(F)F)c2ccccn2c1-c1ccccn1)n1nc(-c2cc(O)cc(F)c2)c2c(N)ncnc21 (centres unmarked) [Example 124, 3-(4-amino-1-{1-[3-(pyridin-2-yl)-1-(trifluoromethyl)indolizin-2-yl]ethyl}-1H-pyrazolo[3,4-d]pyrimidin-3-yl)-5-fluorophenol] | < 0.01 µM | > 1 µM | > 1 µM | 0.01 to 1 µM
CC(c1cc2ccccn2c1-c1ccc(C(=O)N2CCOCC2)cn1)n1nc(-c2cc(O)cc(F)c2)c2c(N)ncnc21 (centres unmarked) [Example 125, 3-[4-amino-1-(1-{3-[5-(morpholine-4-carbonyl)pyridin-2-yl]indolizin-2-yl}ethyl)-1H-pyrazolo[3,4-d]-pyrimidin-3-yl]-5-fluorophenol] | < 0.01 µM | 0.01 to 1 µM | 0.01 to 1 µM | 0.01 to 1 µM
CC(c1c(C#N)c2ccccn2c1-c1ccccn1)n1nc(-c2cc(O)cc(F)c2)c2c(N)ncnc21 (centres unmarked) [Example 126, 2-{1-[4-amino-3-(3-fluoro-5-hydroxyphenyl)-1H-pyrazolo[3,4-d]pyrimidin-1-yl]-ethyl}-3-(pyridin-2-yl)indolizine-1-carbonitrile] | < 0.01 µM | 0.01 to 1 µM | 0.01 to 1 µM | 0.01 to 1 µM
CC(c1c(C#N)c2ccccn2c1-c1cccc(CN(C)C)c1)n1nc(-c2cc(O)cc(F)c2)c2c(N)ncnc21 (centres unmarked) [Example 127, 2-{1-[4-amino-3-(3-fluoro-5-hydroxyphenyl)-1H-pyrazolo[3,4-d]pyrimidin-1-yl]-ethyl}-3-{3-[(dimethylamino)-methyl]phenyl}indolizine-1-carbonitrile] | < 0.01 µM | > 1 µM | > 1 µM | 0.01 to 1 µM
CC(c1cc2cccnn2c1-c1cccc(CN(C)C)c1)n1nc(-c2cc(O)cc(F)c2)c2c(N)ncnc21 (centres unmarked) [Example 128, 3-{4-amino-1-[1-(7-{3-[(dimethylamino)-methyl]phenyl}pyrrolo[1,2-b]pyridazin-6-yl)-ethyl]-1H-pyrazolo[3,4-d]pyrimidin-3-yl}-5-fluorophenol] | 0.01 to 1 µM | > 1 µM | > 1 µM | 0.01 to 1 µM
